Measured values reported in BindingDB's records for doi:10.1021/acs.jmedchem.0c00182 (Inception Therapeutics, 2020).

Test: Inhibition of eIF4A1 in human HAP1 cells assessed as reduction in cell proliferation incubated for 72 hrs by CellTiter-Glo reagent based assay

COc1cc2c(c(OC)n1)[C@]1(O)[C@H](O)[C@H](CN(C)C)[C@@H](c3ccccc3)[C@]1(c1ccc(C#N)cc1)O2 [Zotatifin]
IC50: 6.3 nM
